ChEMBL document CHEMBL4507318, “Data for DCP probe BAY-985” (2021)

Key:
[1] = tested on: Epidermal growth factor receptor (Homo sapiens), P00533 [G719S]
[2] = target: Inhibitor of nuclear factor kappa-B kinase subunit epsilon (Homo sapiens) (UniProt Q14164)
[3] = tested on: ALK tyrosine kinase receptor (Homo sapiens), Q9UM73 [L1196M]
[4] = target: Mitogen-activated protein kinase 8 (Homo sapiens) (UniProt P45983)
[5] = target: Mitogen-activated protein kinase 9 (Homo sapiens) (UniProt P45984)
[6] = target: Histamine H1 receptor (Homo sapiens) (UniProt P35367); settings: Compound concentration 10.0 uM
[7] = target: LIM domain kinase 1 (Homo sapiens) (UniProt P53667)
[8] = target: TRAF2 and NCK-interacting protein kinase (Homo sapiens) (UniProt Q9UKE5)
[9] = target: Sigma non-opioid intracellular receptor 1 (Homo sapiens) (UniProt Q99720); settings: Compound concentration 10.0 uM
[10] = tested on: Epidermal growth factor receptor (Homo sapiens), P00533 [UNDEFINED MUTATION]
[11] = target: Protein kinase C delta type (Homo sapiens) (UniProt Q05655)
[12] = target: Serine/threonine-protein kinase 36 (Homo sapiens) (UniProt Q9NRP7)
[13] = target: Ephrin type-A receptor 2 (Homo sapiens) (UniProt P29317)
[14] = target: Fibroblast growth factor receptor 1 (Homo sapiens) (UniProt P11362)
[15] = target: Alpha-1B adrenergic receptor (Homo sapiens) (UniProt P35368); settings: Compound concentration 10.0 uM
[16] = target: Serine/threonine-protein kinase MRCK alpha (Homo sapiens) (UniProt Q5VT25)
[17] = target: Cyclin-dependent kinase 4 (Homo sapiens) (UniProt P11802)
[18] = target: Mitogen-activated protein kinase kinase kinase kinase 3 (Homo sapiens) (UniProt Q8IVH8)
[19] = target: Tyrosine-protein kinase Fyn (Homo sapiens) (UniProt P06241)
[20] = target: Phosphorylase b kinase gamma catalytic chain, skeletal muscle/heart isoform (Homo sapiens) (UniProt Q16816)
[21] = target: Cyclin-dependent kinase-like 1 (Homo sapiens) (UniProt Q00532)
[22] = target: Cyclin-dependent kinase 13 (Homo sapiens) (UniProt Q14004)
[23] = tested on: Mast/stem cell growth factor receptor Kit (Homo sapiens), P10721 [D816H]
[24] = target: Serine/threonine-protein kinase TAO1 (Homo sapiens) (UniProt Q7L7X3)
[25] = target: Cyclin-dependent kinase 19 (Homo sapiens) (UniProt Q9BWU1)
[26] = tested on: Tyrosine-protein kinase ABL1 (Homo sapiens), P00519 [Q252H]
[27] = target: Mitogen-activated protein kinase 4 (Homo sapiens) (UniProt P31152)
[28] = target: MAP kinase-activated protein kinase 2 (Homo sapiens) (UniProt P49137)
[29] = target: Eukaryotic translation initiation factor 2-alpha kinase 1 (Homo sapiens) (UniProt Q9BQI3)
[30] = target: Mitogen-activated protein kinase 10 (Homo sapiens) (UniProt P53779)
[31] = target: Beta-3 adrenergic receptor (Homo sapiens) (UniProt P13945); settings: Compound concentration 10.0 uM
[32] = target: Dual specificity tyrosine-phosphorylation-regulated kinase 2 (Homo sapiens) (UniProt Q92630)
[33] = target: Serine/threonine-protein kinase PAK 6 (Homo sapiens) (UniProt Q9NQU5)
[34] = target: Dual specificity testis-specific protein kinase 1 (Homo sapiens) (UniProt Q15569)
[35] = target: Mitotic checkpoint serine/threonine-protein kinase BUB1 (Homo sapiens) (UniProt O43683)
[36] = target: Phosphatidylinositol 4-phosphate 3-kinase C2 domain-containing subunit beta (Homo sapiens) (UniProt O00750)
[37] = target: 5-hydroxytryptamine receptor 1A (Homo sapiens) (UniProt P08908); settings: Compound concentration 10.0 uM
[38] = target: Serine/threonine-protein kinase STK11 (Homo sapiens) (UniProt Q15831)
[39] = target: Tyrosine-protein kinase ZAP-70 (Homo sapiens) (UniProt P43403)
[40] = target: Cyclin-dependent kinase 2 (Homo sapiens) (UniProt P24941)
[41] = target: 5-hydroxytryptamine receptor 2C (Homo sapiens) (UniProt P28335); settings: Compound concentration 10.0 uM
[42] = tested on: Tyrosine-protein kinase ABL1 (Homo sapiens), P00519 [T315I]
[43] = target: SNF-related serine/threonine-protein kinase (Homo sapiens) (UniProt Q9NRH2)
[44] = tested on: Fibroblast growth factor receptor 3 (Homo sapiens), P22607 [G697C]
[45] = target: Serine/threonine-protein kinase 26 (Homo sapiens) (UniProt Q9P289)
[46] = Compound concentration 1000.0 nM
[47] = Compound concentration 100.0 nM

Mitogen-activated protein kinase 10 (Homo sapiens), sequence (P53779 whole entry): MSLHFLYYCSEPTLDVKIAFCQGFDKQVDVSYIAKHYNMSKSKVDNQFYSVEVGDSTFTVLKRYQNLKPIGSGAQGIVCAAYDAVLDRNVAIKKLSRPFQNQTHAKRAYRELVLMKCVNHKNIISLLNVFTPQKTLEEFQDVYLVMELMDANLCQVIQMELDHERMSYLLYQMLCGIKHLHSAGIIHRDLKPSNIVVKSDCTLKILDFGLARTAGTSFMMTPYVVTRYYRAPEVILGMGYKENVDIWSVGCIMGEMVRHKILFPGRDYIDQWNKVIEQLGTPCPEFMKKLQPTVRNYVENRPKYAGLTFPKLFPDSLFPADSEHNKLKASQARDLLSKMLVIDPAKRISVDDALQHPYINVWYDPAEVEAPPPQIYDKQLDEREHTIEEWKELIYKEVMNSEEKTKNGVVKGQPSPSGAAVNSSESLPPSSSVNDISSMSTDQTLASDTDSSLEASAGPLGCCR
Cyclin-dependent kinase 13 (Homo sapiens), sequence (Q14004 whole entry, looked up): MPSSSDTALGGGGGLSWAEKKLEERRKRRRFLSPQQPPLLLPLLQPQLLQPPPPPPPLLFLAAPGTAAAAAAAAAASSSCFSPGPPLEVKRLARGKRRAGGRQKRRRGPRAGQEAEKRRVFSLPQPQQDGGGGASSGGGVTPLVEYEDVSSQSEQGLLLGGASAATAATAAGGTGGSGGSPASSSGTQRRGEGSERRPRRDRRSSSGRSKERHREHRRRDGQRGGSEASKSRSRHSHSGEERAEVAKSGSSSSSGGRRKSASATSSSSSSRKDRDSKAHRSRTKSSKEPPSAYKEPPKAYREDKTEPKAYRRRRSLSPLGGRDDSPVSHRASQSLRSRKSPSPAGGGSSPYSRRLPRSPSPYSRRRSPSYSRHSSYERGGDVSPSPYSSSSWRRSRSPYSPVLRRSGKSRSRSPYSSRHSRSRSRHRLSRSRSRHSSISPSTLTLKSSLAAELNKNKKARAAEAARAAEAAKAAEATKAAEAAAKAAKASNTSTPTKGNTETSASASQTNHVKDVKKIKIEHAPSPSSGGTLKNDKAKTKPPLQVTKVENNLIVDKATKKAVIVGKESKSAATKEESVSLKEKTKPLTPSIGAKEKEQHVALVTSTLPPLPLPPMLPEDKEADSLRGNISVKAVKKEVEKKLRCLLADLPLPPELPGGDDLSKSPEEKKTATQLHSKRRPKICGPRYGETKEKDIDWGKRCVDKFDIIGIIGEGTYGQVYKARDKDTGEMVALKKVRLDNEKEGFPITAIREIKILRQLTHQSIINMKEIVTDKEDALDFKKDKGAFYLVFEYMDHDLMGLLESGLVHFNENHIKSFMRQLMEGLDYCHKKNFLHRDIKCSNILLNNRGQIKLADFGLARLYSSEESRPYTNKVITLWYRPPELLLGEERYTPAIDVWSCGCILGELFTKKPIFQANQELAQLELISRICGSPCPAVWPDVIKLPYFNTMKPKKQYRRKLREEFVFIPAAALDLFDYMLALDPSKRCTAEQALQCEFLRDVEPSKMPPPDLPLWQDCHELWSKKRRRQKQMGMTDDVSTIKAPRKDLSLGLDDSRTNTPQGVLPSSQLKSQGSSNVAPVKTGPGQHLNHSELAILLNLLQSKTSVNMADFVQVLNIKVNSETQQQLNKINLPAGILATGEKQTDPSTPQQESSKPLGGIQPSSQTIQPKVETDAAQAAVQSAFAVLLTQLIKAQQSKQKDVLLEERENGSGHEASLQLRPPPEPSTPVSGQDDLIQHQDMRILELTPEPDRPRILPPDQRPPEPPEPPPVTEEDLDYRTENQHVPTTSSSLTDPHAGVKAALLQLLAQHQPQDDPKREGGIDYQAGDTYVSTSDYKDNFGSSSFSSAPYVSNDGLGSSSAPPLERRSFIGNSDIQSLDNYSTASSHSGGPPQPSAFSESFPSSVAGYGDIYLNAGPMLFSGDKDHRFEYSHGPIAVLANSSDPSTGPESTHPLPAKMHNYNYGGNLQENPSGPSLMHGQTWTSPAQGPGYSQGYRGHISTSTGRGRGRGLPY
Dual specificity tyrosine-phosphorylation-regulated kinase 2 (Homo sapiens), sequence (Q92630 whole entry): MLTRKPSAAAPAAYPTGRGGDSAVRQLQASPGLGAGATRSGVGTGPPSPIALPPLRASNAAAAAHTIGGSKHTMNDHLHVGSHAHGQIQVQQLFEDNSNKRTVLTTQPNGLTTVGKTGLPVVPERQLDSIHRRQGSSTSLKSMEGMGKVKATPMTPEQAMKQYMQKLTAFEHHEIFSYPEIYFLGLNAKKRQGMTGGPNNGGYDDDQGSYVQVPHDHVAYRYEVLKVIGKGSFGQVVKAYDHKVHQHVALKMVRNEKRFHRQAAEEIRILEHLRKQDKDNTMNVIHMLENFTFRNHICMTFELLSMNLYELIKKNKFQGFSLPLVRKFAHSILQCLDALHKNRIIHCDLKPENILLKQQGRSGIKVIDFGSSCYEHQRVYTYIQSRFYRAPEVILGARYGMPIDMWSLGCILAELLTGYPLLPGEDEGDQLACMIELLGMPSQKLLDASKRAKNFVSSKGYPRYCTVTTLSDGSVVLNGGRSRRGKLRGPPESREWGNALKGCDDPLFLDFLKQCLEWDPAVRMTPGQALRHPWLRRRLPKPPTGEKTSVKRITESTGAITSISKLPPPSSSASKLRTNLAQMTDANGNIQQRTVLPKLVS
Tyrosine-protein kinase Fyn (Homo sapiens), sequence (P06241 2-537 limits assumed): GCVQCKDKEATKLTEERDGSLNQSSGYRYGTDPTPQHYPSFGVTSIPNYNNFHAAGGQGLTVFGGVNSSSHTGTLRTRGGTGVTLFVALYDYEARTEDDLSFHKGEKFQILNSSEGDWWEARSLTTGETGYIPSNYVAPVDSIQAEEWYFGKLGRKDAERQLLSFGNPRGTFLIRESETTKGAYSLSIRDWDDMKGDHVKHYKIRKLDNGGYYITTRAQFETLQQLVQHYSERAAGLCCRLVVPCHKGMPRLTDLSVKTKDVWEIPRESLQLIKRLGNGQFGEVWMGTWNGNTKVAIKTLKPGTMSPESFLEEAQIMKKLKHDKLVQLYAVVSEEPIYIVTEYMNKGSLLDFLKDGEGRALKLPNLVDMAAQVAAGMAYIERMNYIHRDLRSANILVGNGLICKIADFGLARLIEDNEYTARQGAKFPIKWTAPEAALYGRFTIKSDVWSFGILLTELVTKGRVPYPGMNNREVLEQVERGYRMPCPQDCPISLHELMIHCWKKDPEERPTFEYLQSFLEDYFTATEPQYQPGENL
5-hydroxytryptamine receptor 2C (Homo sapiens), sequence (P28335 whole entry): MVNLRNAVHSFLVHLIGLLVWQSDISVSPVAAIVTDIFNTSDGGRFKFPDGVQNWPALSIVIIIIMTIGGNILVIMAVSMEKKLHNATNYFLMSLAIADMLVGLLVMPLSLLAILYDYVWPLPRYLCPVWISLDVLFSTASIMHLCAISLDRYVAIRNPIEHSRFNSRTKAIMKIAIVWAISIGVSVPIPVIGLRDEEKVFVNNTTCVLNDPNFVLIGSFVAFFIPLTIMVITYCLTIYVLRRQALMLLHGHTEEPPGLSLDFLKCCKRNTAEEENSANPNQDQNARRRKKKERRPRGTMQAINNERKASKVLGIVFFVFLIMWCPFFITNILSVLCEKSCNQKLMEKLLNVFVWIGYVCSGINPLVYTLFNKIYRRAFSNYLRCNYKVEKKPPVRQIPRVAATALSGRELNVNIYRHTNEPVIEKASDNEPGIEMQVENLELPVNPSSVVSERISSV
Serine/threonine-protein kinase TAO1 (Homo sapiens), sequence (Q7L7X3 whole entry): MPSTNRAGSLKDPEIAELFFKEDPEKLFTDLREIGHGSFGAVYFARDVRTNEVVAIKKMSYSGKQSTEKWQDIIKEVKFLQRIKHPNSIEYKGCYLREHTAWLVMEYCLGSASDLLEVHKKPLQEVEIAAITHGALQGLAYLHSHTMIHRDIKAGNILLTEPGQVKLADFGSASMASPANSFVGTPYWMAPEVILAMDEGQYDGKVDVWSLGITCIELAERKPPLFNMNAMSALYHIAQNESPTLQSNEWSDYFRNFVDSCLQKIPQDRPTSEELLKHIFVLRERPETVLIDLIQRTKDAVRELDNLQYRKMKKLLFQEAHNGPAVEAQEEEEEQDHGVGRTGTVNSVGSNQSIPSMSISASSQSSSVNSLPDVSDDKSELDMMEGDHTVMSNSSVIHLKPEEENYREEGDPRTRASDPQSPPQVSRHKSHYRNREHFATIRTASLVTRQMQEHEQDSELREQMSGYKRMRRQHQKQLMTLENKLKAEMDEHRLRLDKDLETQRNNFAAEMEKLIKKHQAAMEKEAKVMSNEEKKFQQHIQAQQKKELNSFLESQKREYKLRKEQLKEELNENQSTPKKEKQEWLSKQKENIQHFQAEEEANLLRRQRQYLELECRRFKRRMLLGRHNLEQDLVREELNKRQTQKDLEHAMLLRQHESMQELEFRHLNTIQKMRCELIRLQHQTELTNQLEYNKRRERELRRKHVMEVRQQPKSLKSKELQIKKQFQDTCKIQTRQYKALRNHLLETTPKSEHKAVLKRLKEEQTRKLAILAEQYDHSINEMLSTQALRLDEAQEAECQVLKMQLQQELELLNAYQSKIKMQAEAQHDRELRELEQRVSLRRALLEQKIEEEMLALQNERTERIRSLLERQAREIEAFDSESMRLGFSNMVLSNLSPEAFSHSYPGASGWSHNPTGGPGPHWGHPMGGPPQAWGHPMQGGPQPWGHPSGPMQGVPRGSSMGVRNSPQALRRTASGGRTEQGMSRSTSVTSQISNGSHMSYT
Serine/threonine-protein kinase STK11 (Homo sapiens), sequence (Q15831 whole entry): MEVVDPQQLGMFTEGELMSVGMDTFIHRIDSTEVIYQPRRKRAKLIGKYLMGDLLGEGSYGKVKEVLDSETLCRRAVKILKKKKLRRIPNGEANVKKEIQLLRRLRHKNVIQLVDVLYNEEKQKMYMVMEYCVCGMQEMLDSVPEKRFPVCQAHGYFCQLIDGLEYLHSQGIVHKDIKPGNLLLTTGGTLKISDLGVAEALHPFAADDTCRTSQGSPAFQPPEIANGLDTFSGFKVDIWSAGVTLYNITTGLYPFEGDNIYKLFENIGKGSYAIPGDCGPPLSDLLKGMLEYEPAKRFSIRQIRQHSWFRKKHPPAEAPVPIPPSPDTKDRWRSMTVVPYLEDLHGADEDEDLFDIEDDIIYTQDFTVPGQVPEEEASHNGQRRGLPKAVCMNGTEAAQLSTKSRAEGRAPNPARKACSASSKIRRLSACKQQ

CN(C)c1ncnc(-c2ccc3nc(Nc4cc(CN5CCN(C(=O)CC(F)(F)F)CC5)ccn4)[nH]c3c2)c1Cl [BAY-440]
active: residual activity [2, 46] 13% | residual activity [5, 46] 47% | residual activity [26, 46] 29%
inactive: residual activity [1, 46] 79% | residual activity [3, 46] 79% | residual activity [4, 46] 63% | inhibition [6] 26.4% | residual activity [7, 46] 100% | residual activity [8, 46] 53% | inhibition [9] 13.9% | residual activity [10, 46] 100% | residual activity [11, 46] 100% | residual activity [12, 46] 98% | residual activity [13, 46] 100% | residual activity [14, 46] 100% | inhibition [15] 4.51% | residual activity [16, 46] 100% | residual activity [17, 46] 70% | residual activity [18, 46] 74% | residual activity [19, 46] 68% | residual activity [20, 46] 96% | residual activity [21, 46] 96% | residual activity [22, 46] 84% | residual activity [23, 46] 75% | residual activity [24, 46] 77% | residual activity [25, 46] 75% | residual activity [27, 46] 100% | residual activity [28, 46] 100% | residual activity [29, 46] 54% | residual activity [30, 46] 51% | inhibition [31] 4.42% | residual activity [32, 46] 81% | residual activity [33, 46] 100% | residual activity [34, 46] 78% | residual activity [35, 46] 94% | residual activity [36, 46] 100% | inhibition [37] 13.9% | residual activity [38, 46] 99% | residual activity [39, 46] 100% | residual activity [40, 46] 100% | inhibition [41] 0.02% | residual activity [42, 46] 51% | residual activity [43, 46] 100% | residual activity [44, 46] 100% | residual activity [45, 46] 91%

C[C@H](c1ccnc(Nc2nc3ccc(-c4cc(N(C)C)ncn4)cc3[nH]2)c1)N1CCN(C(=O)CC(F)(F)F)CC1 [BAY-985]
active: residual activity [2, 47] 9.9%
inactive: residual activity [1, 47] 91% | residual activity [3, 47] 100% | residual activity [4, 47] 98% | residual activity [5, 47] 89% | inhibition [6] 35% | residual activity [7, 47] 100% | residual activity [8, 47] 96% | inhibition [9] 3.18% | residual activity [10, 47] 96% | residual activity [11, 47] 100% | residual activity [12, 47] 97% | residual activity [13, 47] 100% | residual activity [14, 47] 100% | inhibition [15] 2.95% | residual activity [16, 47] 99% | residual activity [17, 47] 89% | residual activity [18, 47] 100% | residual activity [19, 47] 79% | residual activity [20, 47] 100% | residual activity [21, 47] 100% | residual activity [22, 47] 100% | residual activity [23, 47] 82% | residual activity [24, 47] 100% | residual activity [25, 47] 93% | residual activity [26, 47] 84% | residual activity [27, 47] 100% | residual activity [28, 47] 100% | residual activity [29, 47] 100% | residual activity [30, 47] 81% | inhibition [31] 30.4% | residual activity [32, 47] 87% | residual activity [33, 47] 100% | residual activity [34, 47] 98% | residual activity [35, 47] 95% | residual activity [36, 47] 97% | inhibition [37] 6.47% | residual activity [38, 47] 100% | residual activity [39, 47] 100% | residual activity [40, 47] 100% | inhibition [41] 11.4% | residual activity [42, 47] 89% | residual activity [43, 47] 100% | residual activity [44, 47] 100% | residual activity [45, 47] 100%
